This test has as its system 616215-338-R-J1-PDC tumor spheroids, viability. The test can be described thus: Anticancer human tumor 616215-338-R-J1-PDC patient-derived colon adenocarcinoma cell line growth inhibition [GQUAD]. Particulars: spheroids with HUVEC and MSC; for viability, T/C: stronger effect = lower value. An excerpt:
DNA G-quadruplex Stabilizer Agents in Combinations in Complex Spheroids
A high-throughput screen of multi-cell type tumor spheroids was designed to identify active combinations of DNA G-quadruplex stabilizer agents and targeted small molecules. Complex spheroids include a stromal component modeled by human endothelial cells (HUVEC) and fibroblasts modeled by human mesenchymal stem cells (MSCs). The concentration ranges selected for each drug and investigational agent were based upon clinically achievable concentrations if the clinical Cmax of the agent was known.
Compounds. The drugs and investigational agents: pidnarulex (CX-5461; NSC782164), APTO-253 (NSC789042), BRACO-19 (NSC847499), peposertib (NSC802822), ceralasertib (NSC780249), elimusertib (NSC800525), camonsertib (NSC841442), AZD-1390 (NSC803789), olaparib (NSC753686), talazoparib (NSC767125), ART-558 (NSC835418), sotorasib (NSC818433), MRTX-1133 (NSC836407), SN-38 (NSC673596), topotecan (NSC609699), etoposide (NSC141540), doxorubicin (NSC123127), gemcitabine (NSC613327), 5-fluorouracil (NSC19893), paclitaxel (NSC125973), vemurafenib (NSC761431), panobinostat (NSC761190), R-306465 (JNJ-16241199; NSC773264), adavosertib (NSC754352), TP-3654 (NSC805149), carboplatin (NSC241240), KSQ-4279 (NSC840948), and staurosporine (NSC755774) were obtained from the National Cancer Institute (NCI) Developmental Therapeutics Program Chemical Repository (34). The FDA-approved anticancer drug set is available from the NCI Developmental Therapeutics Program. […] The stock solutions were prepared in dimethyl sulfoxide (DMSO, Sigma-Aldrich, St. Louis, MO, cat. D2650) at 800-fold the tested concentration and stored at -70 degrees C prior to their use. All drugs and investigational agents were tested over a range starting from a high concentration at or near the clinical Cmax and decreasing in half-log increments. If the clinical Cmax for an agent had not been determined, the highest concentration tested was 10 microM.
2.3 Cell Culture. All cells were maintained in an incubator at 37 degrees C and 5% CO2 with 95% humidity. The PDC lines were cultured according to standard operating procedures established by the NCI PDMR. All PDCs were thawed and cultured in Matrigel-coated flasks prepared with a working solution of 1X Ham's F-12 nutrient mix, without supplementation (Invitrogen, cat. 11765054), 100 U/mL penicillin-streptomycin (Invitrogen, cat. 15140122), and 2.5% Matrigel (Corning Inc., cat. 354248) for the first three passages. The 857933-349-R-J2-PDC line was cultured in 6C/Colon 1B media, which includes advanced DMEM/F-12 (Thermo Fisher Scientific, cat. 12634028), 10 mM HEPES (Thermo Fisher Scientific, cat. 15630080), 1X GlutaMAX supplement (Thermo Fisher Scientific, cat. 35050061), 0.1 mg/mL primocin (InvivoGen, cat. ant-pm-2), 10% defined fetal bovine serum, heat inactivated (HyClone Laboratories Inc., cat. SH30070.03HI), 50% L-WRN conditioned media (ATCC, cat. CRL-3276), 1.25 mM N-Acetyl-L-cysteine (Sigma-Aldrich, cat. A9165), 10 mM nicotinamide (Sigma-Aldrich, cat. N0636), 1X B-27 supplement (Thermo Fisher Scientific, cat. 17504044), 1X N-2 supplement (Thermo Fisher Scientific, cat. 17502048), 10 microM Y-27632 dihydrochloride (Tocris Bioscience, cat. 1254), and 50 ng/mL human EGF recombinant protein (Thermo Fisher Scientific, cat. PHG0311). The 485176-168-R4-J1-PDC line was cultured in Panc media, which includes all 6C/Colon 1B media components plus 100 ng/mL human FGF-10 (Thermo Fisher Scientific, cat. 100-26), 500 nM SB-431542 (Selleckchem, cat. S1067), and gastrin (Tocris, cat. 3006).
[…]

Where [1] appears, read: curve of first compound, second compound 0.0316 µM.
Setting [2] is: curve of first compound, second compound 0.1 µM.
[3] abbreviates: curve of first compound, second compound 0.316 µM.
[4] abbreviates: curve of first compound, second compound 1 µM.
Where [5] appears, read: curve of first compound, second compound 3.16 µM.
Setting [6] is: curve of first compound, second compound 10 µM.
The mark [7] stands for this setting: second compound 0.0316 µM, first compound 0.0316 µM.
Setting [8] is: second compound 0.0316 µM, first compound 0.1 µM.
The mark [9] stands for this setting: second compound 0.0316 µM, first compound 0.316 µM.
Setting [10] is: second compound 0.0316 µM, first compound 1 µM.
The mark [11] stands for this setting: second compound 0.0316 µM, first compound 3.16 µM.
Setting [12] is: second compound 0.0316 µM, first compound 10 µM.
The mark [13] stands for this setting: second compound 0.1 µM, first compound 0.0316 µM.
The mark [14] stands for this setting: second compound 0.1 µM, first compound 0.1 µM.
Where [15] appears, read: second compound 0.1 µM, first compound 0.316 µM.
The mark [16] stands for this setting: second compound 0.1 µM, first compound 1 µM.
[17] abbreviates: second compound 0.1 µM, first compound 3.16 µM.
Where [18] appears, read: second compound 0.1 µM, first compound 10 µM.
[19] abbreviates: second compound 0.316 µM, first compound 0.0316 µM.
[20] abbreviates: second compound 0.316 µM, first compound 0.1 µM.
Setting [21] is: second compound 0.316 µM, first compound 0.316 µM.
The mark [22] stands for this setting: second compound 0.316 µM, first compound 1 µM.
The mark [23] stands for this setting: second compound 0.316 µM, first compound 3.16 µM.
The mark [24] stands for this setting: second compound 0.316 µM, first compound 10 µM.
Setting [25] is: second compound 1 µM, first compound 0.0316 µM.
The mark [26] stands for this setting: second compound 1 µM, first compound 0.1 µM.
Where [27] appears, read: second compound 1 µM, first compound 0.316 µM.
Setting [28] is: second compound 1 µM, first compound 1 µM.
Setting [29] is: second compound 1 µM, first compound 3.16 µM.
The mark [30] stands for this setting: second compound 1 µM, first compound 10 µM.
The mark [31] stands for this setting: second compound 3.16 µM, first compound 0.0316 µM.
Where [32] appears, read: second compound 3.16 µM, first compound 0.1 µM.
Where [33] appears, read: second compound 3.16 µM, first compound 0.316 µM.
The mark [34] stands for this setting: second compound 3.16 µM, first compound 1 µM.
Setting [35] is: second compound 3.16 µM, first compound 3.16 µM.
Setting [36] is: second compound 3.16 µM, first compound 10 µM.
[37] abbreviates: second compound 10 µM, first compound 0.0316 µM.
[38] abbreviates: second compound 10 µM, first compound 0.1 µM.
Where [39] appears, read: second compound 10 µM, first compound 0.316 µM.
[40] abbreviates: second compound 10 µM, first compound 1 µM.
[41] abbreviates: second compound 10 µM, first compound 3.16 µM.
[42] abbreviates: second compound 10 µM, first compound 10 µM.

Values joined by “and” are separate entries in the source; they are usually repeats but may differ in a detail not shown here. Equal values may be shown once.

For 5 compounds, viability, T/C and IC50 results are on record in PubChem BioAssay AID2060493 (Molecular Pharmacology Branch, DTP, NCI, 2025).
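Also: spheroids exposed to agents for 7 days before readout.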
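For viability, T/C in this document: percent viability relative to DMSO vehicle control wells taken as 100%.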

Broadly, the viability, T/C is the ratio of treated to control. As usually defined, the IC50 is the midpoint of a concentration-inhibition curve. As to `O=C(c1cc(Cc2n[nH]c(=O)c3ccccc23)ccc1F)N1CCN(C(=O)C2CC2)CC1`, the viability, T/C by setting is: (compound 0.0316 µM) 96.6% and 106% and 92.3%; (compound 0.1 µM) 105% and 99.2% and 101%; (compound 0.316 µM) 98.7% and 104% and 96.1%; (compound 1 µM) 96.9% and 105% and 96.2%; (compound 3.16 µM) 102% and 105% and 98.3%; (compound 10 µM) 67.2% and 66.3% and 73.1%. Moreover, the IC50 (curve of compound) was > 10000 nM.
As to `CC1COCCN1c1cc(C2(S(C)(=N)=O)CC2)nc(-c2ccnc3[nH]ccc23)n1` (stereo not given), the viability, T/C (compound 0.0316 µM) was 112% and 99% and 92.8%; the viability, T/C (compound 0.1 µM) was 102% and 101% and 90.8%; the viability, T/C (compound 0.316 µM) is 122% and 95% and 90%; the viability, T/C (compound 1 µM) is 94.4% and 94.6% and 92.2%; the viability, T/C (compound 3.16 µM) was 72.2% and 51.3% and 62.8%; the viability, T/C (compound 10 µM) was 36% and 28.3% and 34.5%. Besides, the IC50 (curve of compound) was 6340 nM and 3380 nM and 5330 nM.
Take `CC1COCCN1c1cc(C2(O)CC3CCC(C2)O3)c2cnn(-c3ccn[nH]3)c2n1` (stereo not given) + Cc1[nH]c2ccc(F)cc2c1-c1nc2c3cccnc3c3ncccc3c2[nH]1: the IC50 came to 236 nM under setting [1]; 226 nM under setting [2]; 234 nM under setting [3]; 222 nM under setting [4]; 176 nM under setting [5]; 120 nM under setting [6]. Also, the viability, T/C by setting is: under setting [7], 95.4%; under setting [8], 78%; under setting [9], 40.1%; under setting [10], 30.6%; under setting [11], 28.8%; under setting [12], 25.9%. Besides, the viability, T/C is 90.2% under setting [13]; 83.9% under setting [14]; 35.6% under setting [15]; 31.1% under setting [16]; 23.8% under setting [17]; 17% under setting [18]. Besides, the viability, T/C under setting [19] was 91.8%; the viability, T/C under setting [20] was 61.5%; the viability, T/C under setting [21] is 42.4%; the viability, T/C under setting [22] was 40%; the viability, T/C under setting [23] is 26.1%; the viability, T/C under setting [24] was 19.9%. Further, the viability, T/C was 99.5% under setting [25]; 59.7% under setting [26]; 47.4% under setting [27]; 32.7% under setting [28]; 23.2% under setting [29]; 19.3% under setting [30]. Further, the viability, T/C was 92.4% under setting [31]; 71.8% under setting [32]; 27.2% under setting [33]; 31.7% under setting [34]; 25.7% under setting [35]; 16.4% under setting [36]. Further, the viability, T/C under setting [37] is 88.4%; the viability, T/C under setting [38] is 50.8%; the viability, T/C under setting [39] was 36.1%; the viability, T/C under setting [40] was 30%; the viability, T/C under setting [41] is 20.8%; the viability, T/C under setting [42] is 20.2%.
With `COc1cc(C2c3cc4c(cc3C(OC3OC5COC(C)OC5C(O)C3O)C3COC(=O)C23)OCO4)cc(OC)c1O` (stereo not given), the viability, T/C reads like this: (compound 0.0316 µM) 106% and 97.9% and 101%; (compound 0.1 µM) 93% and 95.6% and 92.9%; (compound 0.316 µM) 72.8% (2×) and 63.2%; (compound 1 µM) 41.4% and 57.3% and 43.4%; (compound 3.16 µM) 29.8% and 39.9% and 37.9%; (compound 10 µM) 24.3% and 21.6% and 20%. Besides, the IC50 (curve of compound) was 749 nM and 1560 nM and 781 nM.
As to `CC(C)(O)C1CCC(Nc2ccc3ncc(-c4cccc(C(F)(F)F)c4)n3n2)CC1` (stereo not given) + Cc1cnc(CNC(=O)c2c(=O)c3ccc(N4CCCN(C)CC4)nc3n3c2sc2ccccc23)cn1, the IC50 under setting [1] amounted to 571 nM; the IC50 under setting [2] amounted to 352 nM; the IC50 under setting [3] is < 31.6 nM; the IC50 under setting [4] is < 31.6 nM; the IC50 under setting [5] is < 31.6 nM; the IC50 under setting [6] is < 31.6 nM. Moreover, the viability, T/C is, setting by setting: under setting [7], 96.8%; under setting [8], 86.9%; under setting [9], 82.1%; under setting [10], 19.8%; under setting [11], 1.65%; under setting [12], 2.16%. In addition, the viability, T/C reads like this: under setting [13], 67.2%; under setting [14], 73.2%; under setting [15], 53.1%; under setting [16], 13.9%; under setting [17], 4.15%; under setting [18], 1.36%. Besides, the viability, T/C was 36.8% under setting [19]; 50.2% under setting [20]; 37.3% under setting [21]; 14.8% under setting [22]; 0.03% under setting [23]; 2.26% under setting [24]. Besides, the viability, T/C is, setting by setting: under setting [25], 32.5%; under setting [26], 32.1%; under setting [27], 28.7%; under setting [28], 13.3%; under setting [29], 0.05%; under setting [30], 0.06%. Further, the viability, T/C reads like this: under setting [31], 20.9%; under setting [32], 24.2%; under setting [33], 29.9%; under setting [34], 3.87%; under setting [35], 0.1%; under setting [36], 0.12%. In addition, the viability, T/C is 19.6% under setting [37]; 24.7% under setting [38]; 27.8% under setting [39]; 0.18% under setting [40]; 0.22% under setting [41]; 0.2% under setting [42].
